Patent US20230126310A1 (priority 2020, published 2023)

Assays:
SARS-CoV-2 [1] = conditions: 10 µM
SARS-CoV-2 [2] = experiment: microbe, parasite or virus in culture; conditions: Severe acute respiratory syndrome coronavirus 2, Caco-2, 48 h, read-out: % Inh. (% Inhibition of SARS-CoV-2)

| SMILES | % Inh. (% Inhibition of SARS-CoV-2) (SARS-CoV-2 [1]) [%] | inhibition at 10 µM (SARS-CoV-2 [2]) [%] |
| --- | --- | --- |
| CC(C)(C)c1cc(O)c(C(C)(C)C)cc1O [BHQ] | 50.6 | – |
| CCN(CC)CC1CCN(c2ncc3ncnc(Nc4ccc(F)c(Cl)c4)c3n2)CC1.Cl.Cl [BIBU-1361] | 78.5 | – |
| Nc1cc(C(F)(F)F)c(-c2cc(N3CCOCC3)nc(N3CCOCC3)n2)cn1 [BKM120 (NVP-BKM120)] | 97.6 | – |
| Nc1nccc(Oc2ccc(NC(=O)c3c[nH]cc(-c4ccc(F)cc4)c3=O)cc2F)c1Cl [BMS 794833] | 98.3 | – |
| O=c1oc(-c2ccc(C(F)(F)F)cc2)nn1Cc1cc(Cl)ccc1O [BMS-191011] | 52.3 | – |
| Cc1c(NC(=O)OC[C@@H]2COCCN2)cn2ncnc(Nc3ccc4c(cnn4Cc4cccc(F)c4)c3)c12 [BMS-599626] | 76.4 | – |
| CNCc1ccc(C)c(NC(=O)c2ccc(Nc3nc(-c4ccccc4)c4ccccc4n3)cc2)c1 [BMS-833923 (XL139)] | 68.8 | – |
| O=C1/C(=C/c2ccccc2)C[C@@]2(O)[C@H]3Cc4ccc(O)c5c4[C@@]2(CCN3CC2CC2)[C@H]1O5 [BNTX] | 77.3 | – |
| c1ccc2nc(C3=NCCN3)cnc2c1 [BU-239] | 60.1 | – |
| NC1(Cc2ccc(Cl)cc2)CCN(c2ncnc3[nH]ccc23)CC1 [CCT128930] | 86.7 | – |
| CCCCCCCCCCCCCCCC[N+](C)(C)C.[Br-] [CETRIMONIUM BROMIDE] | 87.7 | – |
| O=C1NC(=O)c2cc(Nc3ccccc3)c(Nc3ccccc3)cc21 [CGP-52411] | 94.5 | – |
| O=C1NC(=O)c2cc(Nc3ccc(F)cc3)c(Nc3ccc(F)cc3)cc21 [CGP-53353] | 86.1 | – |
| OCCCNc1cc(-c2ccnc(Nc3cccc(Cl)c3)n2)ccn1 [CGP-60474] | 54.4 | – |
| CC(C)(C)c1cc(C(=O)/C=C/c2ccc(C(=O)O)cc2)cc(C(C)(C)C)c1 [CH55] | 87.5 | – |
| O=C(Nc1ccc(CN2CCOCC2)cc1)c1ccc(-c2cccc(Cl)c2)o1 [CID-2011756] | 97.0 | – |
| Cc1ccc(CC2(O)CCN(CCOc3ccc(O)cc3)CC2)cc1 [CO-101244] | 60.2 | – |
| CC(C)(NS(=O)(=O)c1ccc(Oc2ccc(F)cc2)cc1)C(=O)NO [CP-471474] | 86.9 | – |

| SMILES | % Inh. (% Inhibition of SARS-CoV-2) (SARS-CoV-2 [1]) [%] | inhibition at 10 µM (SARS-CoV-2 [2]) [%] |
| --- | --- | --- |
| CC[C@H](CO)Nc1nc(NCc2ccc(-c3ccccn3)cc2)c2ncn(C(C)C)c2n1 [CR8-(R)] | 76.6 | – |
| Cc1nc(C#Cc2ccnc(Cl)c2)c(C)n1-c1ccc(OC(F)(F)F)cc1 [CTEP (RO4956371)] | 59.7 | – |
| COc1ccc(OC)c(CN(C(C)=O)c2cc(F)ccc2Oc2ccccc2)c1 [DAA-1106] | 91.0 | – |
| CCN1CCN(Cc2ccc(C(=O)Nc3ccc(C)c(Oc4ccc5c(c4)CC(=O)N5)c3)cc2C(F)(F)F)CC1 [DDR1-IN-1] | 77.6 | – |
| O=C1Nc2ccc(Cl)c3c2C1(CCCCN1CC=C(c2ccc(Cl)cc2)CC1)CCC3 (centres unmarked) [DR-4485] | 82.8 | – |
| CC[C@H](C)[C@@H]([C@@H](CC(=O)N1CCC[C@H]1[C@H](OC)[C@@H](C)C(=O)N[C@@H](Cc1ccccc1)c1nccs1)OC)N(C)C(=O)[C@@H](NC(=O)[C@H](C(C)C)N(C)C)C(C)C [Dolastin-10] | 64.3 | – |
| COc1cc(/C=C2\CCCN([C@@H](C)c3ccc(F)cc3)C2=O)ccc1-n1cnc(C)c1 [E 2012] | 100.8 | – |
| COc1c(C)cnc(Cn2cc(C#CCC(C)(C)O)c3c(Cl)nc(N)nc32)c1C [EC-144] | 95.0 | – |
| COc1ccc(C(=O)N2CCCc3cc(C4=NNC(=O)SC4C)ccc32)cc1OC (centres unmarked) [EMD-53998] | 79.6 | – |
| Cc1ccccc1C(=O)c1ccc(Nc2ccc(Br)cc2N)cc1Cl [EO-1428] | 66.1 | – |
| Cc1ccc2c(=O)c3ccccc3n(CCCN)c2c1C.O=C(O)/C=C\C(=O)O [ER-27319 maleate] | 101.0 | – |
| CC(C)(C)c1cc(C(=O)/C(C#N)=N/Nc2cccc(Cl)c2)no1 [ESI-09] | 78.0 | – |
| CCCCCCCCCCCCCCCC[N+](C)(C)CCN(Cc1ccc(OC)cc1)c1ncccn1 [thonzonium bromide] | – | 76.4 |
| N#Cc1cn([C@@H]2O[C@H](CO)[C@@H](O)[C@H]2O)c2ncnc(N)c12 [toyocamycin] | – | 68.4 |
| COc1ccc(/C=C/C(=O)O)cc1 [trans-4-Methoxycinnamic-acid] | – | 53.6 |
| COc1ccc(N(C)c2nc(C)nc3ccccc23)cc1 [verubulin] | – | 50.9 |
| c1ccc(C(O[C@@H]2CCCN(CCc3ccc4c(c3)OCO4)C2)c2ccccc2)cc1 [zamifenacin] | – | 58.3 |
